According to patent US20100166765A1, “BENZOQUINAZOLINE DERIVATIVES” (priority 2005, published 2010):

First: C#CCOc1ccc2nc(C(=O)c3ccc(C(C)(C)C)cc3)nc(-c3ccc(C(C)C)cc3)c2c1 [Example 1, (4-tert-Butyl-phenyl)-[4-(4-isopropyl-phenyl)-6-propargyloxy-quinazolin-2-yl]-methanone]
Second: C#CCOc1ccc2nc(C(=O)c3ccc(OC(C)(C)C)cc3)nc(-c3ccc(C(C)C)cc3)c2c1 [Example 29, (4-tert.Butyloxy-phenyl)-[4-(4-isopropyl-phenyl)-6-propargyloxy-quinazolin-2-yl]-methanone]
The melting point of the first is higher: 166 to 168 °C for the first, 130 to 132 °C for the second.

First: C#CCOc1ccc2nc(C(=O)c3ccc(F)cc3)nc(-c3ccc(C(C)C)cc3)c2c1 [Example 6, (4-Fluoro-phenyl)-[4-(4-isopropyl-phenyl)-6-propargyloxy-quinazolin-2-yl]-methanone]
Second: C#CCOc1ccc2nc(C(=O)c3ccc(Cl)cc3)nc(-c3ccc(C(C)C)cc3)c2c1 [Example 9, (4-Chloro-phenyl)-[4-(4-isopropyl-phenyl)-6-propargyloxy-quinazolin-2-yl]-methanone]
The melting point of the first is higher: 124 to 126 °C for the first, 108 to 110 °C for the second.

Compared with `C#CCOc1ccc2nc(C(=O)c3cccc(F)c3)nc(-c3ccc(C(C)C)cc3)c2c1` [Example 7, (3-Fluoro-phenyl)-[4-(4-isopropyl-phenyl)-6-propargyloxy-quinazolin-2-yl]-methanone], `C#CCOc1ccc2nc(C(=O)c3cccc(Cl)c3)nc(-c3ccc(C(C)C)cc3)c2c1` [Example 8, (3-Chloro-phenyl)-[4-(4-isopropyl-phenyl)-6-propargyloxy-quinazolin-2-yl]-methanone] is higher in melting point: 118 to 120 °C for the first, 128 to 130 °C for the second.

First: C#CCOc1ccc2nc(C(=O)c3ccc(F)cc3)nc(-c3ccc(C(C)(C)C)cc3)c2c1 [Example 10, (4-Fluoro-phenyl)-[4-(4-tert.butyl-phenyl)-6-propargyloxy-quinazolin-2-yl]-methanone]
Second: C#CCOc1ccc2nc(C(=O)c3ccc(OC)cc3)nc(-c3ccc(C(C)(C)C)cc3)c2c1 [Example 26, (4-Methoxy-phenyl)-[4-(4-tert.butyl-phenyl)-6-propargyloxy-quinazolin-2-yl]-methanone]
The melting point of the first is lower: 105 to 107 °C for the first, 150 to 152 °C for the second.

First: C#CCOc1ccc2nc(C(=O)c3cccc(F)c3)nc(-c3ccc(C(C)(C)C)cc3)c2c1 [Example 11, (3-Fluoro-phenyl)-[4-(4-tert.butyl-phenyl)-6-propargyloxy-quinazolin-2-yl]-methanone]
Second: C#CCOc1ccc2nc(C(=O)c3ccoc3)nc(-c3ccc(C(C)(C)C)cc3)c2c1 [Example 33, Furan-3-yl-[4-(4-tert.butyl-phenyl)-6-propargyloxy-quinazolin-2-yl]-methanone]
The melting point of the first is lower: 156 to 158 °C for the first, 170 °C for the second.

First: C#CCOc1ccc2nc(C(=O)c3cccc(Br)c3)nc(-c3ccc(C(C)C)cc3)c2c1 [Example 12, (3-Bromo-phenyl)-[4-(4-isopropyl-phenyl)-6-propargyloxy-quinazolin-2-yl]-methanone]
Second: C#CCOc1ccc2nc(C(=O)c3ccc(Br)cc3)nc(-c3ccc(C(C)C)cc3)c2c1 [Example 13, (4-Bromo-phenyl)-[4-(4-isopropyl-phenyl)-6-propargyloxy-quinazolin-2-yl]-methanone]
The melting point of the first is higher: 132 °C for the first, 97 to 100 °C for the second.

Compared with `C#CCOc1ccc2nc(C(=O)c3ccc(C)cc3)nc(-c3ccc(C(C)C)cc3)c2c1` [Example 14, (4-Methyl-phenyl)-[4-(4-isopropyl-phenyl)-6-propargyloxy-quinazolin-2-yl]-methanone], `C#CCOc1ccc2nc(C(=O)c3ccc(O)cc3)nc(-c3ccc(C(C)C)cc3)c2c1` [Example 30, (4-Hydroxy)-[4-(4-isopropyl-phenyl)-6-propargyloxy-quinazolin-2-yl]-methanone] is higher in melting point: 130 to 132 °C for the first, 185 to 187 °C for the second.

First: C#CCOc1ccc2nc(C(=O)c3ccc(C(C)C)cc3)nc(-c3ccc(C(C)C)cc3)c2c1 [Example 15, (4-Isopropyl-phenyl)-[4-(4-isopropyl-phenyl)-6-propargyloxy-quinazolin-2-yl]-methanone]
Second: C#CCOc1ccc2nc(C(=O)c3ccc(N(C)C)cc3)nc(-c3ccc(C(C)C)cc3)c2c1 [Example 20, (4-Dimethylamino-phenyl)-[4-(4-isopropyl-phenyl)-6-propargyloxy-quinazolin-2-yl]-methanone]
The melting point of the first is lower: 132 to 134 °C for the first, 148 to 151 °C for the second.

First: C#CCOc1ccc2nc(C(=O)c3ccc(CC)cc3)nc(-c3ccc(C(C)C)cc3)c2c1 [Example 16, (4-Ethyl-phenyl)-[4-(4-isopropyl-phenyl)-6-propargyloxy-quinazolin-2-yl]-methanone]
Second: C#CCOc1ccc2nc(C(=O)c3ccc(CCC)cc3)nc(-c3ccc(C(C)C)cc3)c2c1 [Example 16a, (4-Propyl-phenyl)-[4-(4-isopropyl-phenyl)-6-propargyloxy-quinazolin-2-yl]-methanone]
The melting point of the first is lower: 108 to 111 °C for the first, 140 to 142 °C for the second.

First: C#CCOc1ccc2nc(C(=O)c3ccc(C#N)cc3)nc(-c3ccc(C(C)C)cc3)c2c1 [Example 17, (4-Cyano-phenyl)-[4-(4-isopropyl-phenyl)-6-propargyloxy-quinazolin-2-yl]-methanone]
Second: C#CCOc1ccc2nc(C(=O)c3ccc(SC)cc3)nc(-c3ccc(C(C)C)cc3)c2c1 [Example 18, (4-Methylthio-phenyl)-[4-(4-isopropyl-phenyl)-6-propargyloxy-quinazolin-2-yl]-methanone]
The melting point of the first is lower: 130 to 132 °C for the first, 161 to 164 °C for the second.

First: C#CCOc1ccc2nc(C(=O)c3ccc(S(C)(=O)=O)cc3)nc(-c3ccc(C(C)C)cc3)c2c1 [Example 19, (4-Methansulfonyl-phenyl)-[4-(4-isopropyl-phenyl)-6-propargyloxy-quinazolin-2-yl]-methanone]
Second: C#CCOc1ccc2nc(C(=O)c3ccc(C(=O)OC)cc3)nc(-c3ccc(C(C)C)cc3)c2c1 [Example 22, 4-[4-(4-Isopropyl-phenyl)-6-propargyloxy-quinazoline-2-carbonyl]-benzoic acid methyl ester]
The melting point of the first is higher: 181 to 184 °C for the first, 108 to 110 °C for the second.

First: C#CCOc1ccc2nc(C(=O)c3ccc(OCC)cc3)nc(-c3ccc(C(C)C)cc3)c2c1 [Example 21, (4-Ethoxy-phenyl)-[4-(4-isopropyl-phenyl)-6-propargyloxy-quinazolin-2-yl]-methanone]
Second: C#CCOc1ccc2nc(C(=O)c3ccc(OCCCC)cc3)nc(-c3ccc(C(C)C)cc3)c2c1 [Example 31, (4-Butyloxy)-[4-(4-isopropyl-phenyl)-6-propargyloxy-quinazolin-2-yl]-methanone]
The melting point of the first is higher: 117 to 119 °C for the first, 91 to 93 °C for the second.

Compared with `C#CCOc1ccc2nc(C(=O)c3ccc(N(C)C)cc3)nc(-c3ccc(C(C)(C)C)cc3)c2c1` [Example 23, (4-Dimethylamino-phenyl)-[4-(4-tert.butyl-phenyl)-6-propargyloxy-quinazolin-2-yl]-methanone], `C#CCOc1ccc2nc(C(=O)c3ccc(N(C)C)cc3)nc(-c3ccc(C4CC4)cc3)c2c1` [Example 24, (4-Dimethylamino-phenyl)-[4-(4-cyclopropyl-phenyl)-6-propargyloxy-quinazolin-2-yl]-methanone] is higher in melting point: 150 to 152 °C for the first, 169 to 172 °C for the second.

First: C#CCOc1ccc2nc(C(=O)c3ccc(C(=O)OCC)cc3)nc(-c3ccc(C(C)C)cc3)c2c1 [Example 25, 4-[4-(4-Isopropyl-phenyl)-6-propargyloxy-quinazoline-2-carbonyl]-benzoic acid ethyl ester]
Second: C#CCOc1ccc2nc(C(=O)c3ccc(OC)c(OCC)c3)nc(-c3ccc(C(C)C)cc3)c2c1 [Example 28, (3-Ethoxy-4-methoxy-phenyl)-[4-(4-isopropyl-phenyl)-6-propargyloxy-quinazolin-2-yl]-methanone]
The melting point of the first is lower: 132 to 134 °C for the first, 148 °C for the second.

First: C#CCOc1ccc2nc(C(=O)c3ccc(OC)cc3)nc(-c3ccc(C4CC4)cc3)c2c1 [Example 27]
Second: C#CCOc1ccc2nc(C(=O)c3ccoc3)nc(-c3ccc(C(C)C)cc3)c2c1 [Example 34, Furan-3-yl-[4-(4-isopropyl-phenyl)-6-propargyloxy-quinazolin-2-yl]-methanone]
The melting point of the first is higher: 147 to 149 °C for the first, 133 °C for the second.

Compared with `C#CCOc1ccc2nc(C(=O)c3ccco3)nc(-c3ccc(C(C)C)cc3)c2c1` [Example 32, Furan-2-yl-[4-(4-isopropyl-phenyl)-6-propargyloxy-quinazolin-2-yl]-methanone], `C#CCOc1ccc2nc(C(=O)c3cccs3)nc(-c3ccc(C(C)C)cc3)c2c1` [Example 35, Thiophen-2-yl-[4-(4-isopropyl-phenyl)-6-propargyloxy-quinazolin-2-yl]-methanone] is lower in melting point: 150 to 151 °C for the first, 113 to 117 °C for the second.

First: C#CCOc1ccc2nc(C(=O)c3sccc3C)nc(-c3ccc(C(C)C)cc3)c2c1 [Example 36]
Second: C#CCOc1ccc2nc(C(=O)c3cccn3C)nc(-c3ccc(C(C)C)cc3)c2c1 [Example 39, (1-Methyl-1H-pyrrol)-2-yl-[4-(4-isopropyl-phenyl)-6-propargyloxy-quinazolin-2-yl]-methanone]
The melting point of the first is higher: 130 to 132 °C for the first, 126 to 128 °C for the second.

Work on `C#CCOc1ccc2nc(C(=O)c3cc4ccccc4s3)nc(-c3ccc(C(C)C)cc3)c2c1` [Example 37, Benz[b]thiophen-2-yl-[4-(4-isopropyl-phenyl)-6-propargyloxy-quinazolin-2-yl]-methanone] yielded a melting point of 167 to 169 °C.
